From patent US12257243B2, “5-hydroxy-7-oxabicyclo[2.2.1]heptane-2-carboxamide derivatives for inducing chondrogenesis for treating joint damage” (NOVARTIS AG, priority 2018, dated 2025)
Like-named read-outs stand apart in the source and are kept apart here.

Test system: ALP in normal human articular chondrocytes (NHACs)
Test: Alkaline Phosphatase (ALP) activity assay (staining and quantitation) in NHACs, prevention of chondrocyte hypertrophy
Format: cell-based
Details: human IL-1 beta 10 ng/mL, 12 days; for IC50: Fast Blue RR staining, high content imaging, read-out: ALP in NHAC IC50; for Emax / ALP in NHAC (% Efficacy): value in parentheses; for Emax: read-out: ALP in NHAC (% Efficacy)
Protocol: The compounds of the present invention were evaluated in the Alkaline Phosphatase (ALP) activity assay to determine the ability of the compounds to prevent chondrocyte hypertrophy in normal human articular chondrocytes (NHACs).
Normal human articular chondrocytes (NHACs) were purchased from PromoCell (Heidelberg, Germany) and grown in Chondrocyte Growth Medium (CGM; Lonza, Walkersville, Md.).
NHACs were expanded in Chondrocyte Growth Medium (CGM) from Lonza until they reached a 60-80% confluency. To initiate differentiation, 7,500 cells were plated/well with indicated test compound dose in 384-well Cell Carrier Ultra plates (Perkin Elmer) with DMEM (SH30022—HyClone) containing 10% FBS (35-015-CV—Corning), 1% Pen/Strep antibiotics (SV30010—HyClone), and 1% Normocin (50 mg/mL—InvivoGen). Cells with test compounds were incubated at 37° C., 5% CO2 for 5 hours and then added human IL-1 beta (AF-200-1B—Peprotech) to each well at a final concentration of 10 ng/mL and incubated at 37° C., 5% CO2 for 12 days.
To detect the presence of hypertrophic cells, NHACs were fixed with 4% paraformaldehyde and Hoechst 33342 (Invitrogen) dye for 30 minutes, rinsed in PBS, then stained with Fast Blue RR Salt (F0500—Sigma) with Naphthol AS-MX Phosphate Alkaline Solution, 0.25% (855—Sigma-Aldrich).
The staining was imaged by fluorescent microscopy, using the 561 nm wavelength, and/or quantified by high content imaging with the Image press Confocal (Molecular Devices, Sunnyvale, Calif.). Data analyses were performed with a customized multiwavelength cell-scoring application.

Row | Compound | IC50 (Chondrocyte, 288 h) [µM] | Emax (Chondrocyte, 288 h) [%] | IC50 [µM] | ALP in NHAC (% Efficacy) [%]
1 | CC(C)n1cc([C@H]2[C@H]3O[C@H](C[C@@H]3O)[C@@H]2C(=O)Nc2cc(C(F)(F)F)ccc2F)c(C(F)(F)F)n1 (racemic) [Example 85, rac-(1R,2R,3S,4R,5S)—N-(2-fluoro-5-(trifluoromethyl)phenyl)-5-hydroxy-3-(1-isopropyl-3-(trifluoromethyl-1H-pyrazol-4-yl-7-oxabicyclo[2.2.1]heptane-2-carboxamide] | > 30 | 44 | – | –
2 | COc1cc([C@H]2[C@H]3O[C@H](C[C@@H]3O)[C@@H]2C(=O)Nc2cc(C(F)(F)F)ccn2)ccn1 (racemic) [Example 77, rac-(1R,2R,3S,4R,5)-5-hydroxy-3-(2-methoxypyridin-4-yl)-N-(4-(trifluoromethyl)pyridin-2-yl)-7-oxabicyclo[2.2.1]heptane-2-carboxamide] | 15 | 76 | – | –
3 | Cn1cc([C@H]2[C@H]3O[C@H](C[C@@H]3O)[C@@H]2C(=O)Nc2cc(Cl)cc(C(F)(F)F)c2)c(C(F)(F)F)n1 (racemic) [Example 34, rac-(1R,2R,3S,4R,5)-N-(3-chloro-5-(trifluoromethyl)phenyl)-5-hydroxy-3-(1-methyl-3-(trifluoromethyl)-1H-pyrazol-4-yl)-7-oxabicyclo[2.2.1]heptane-2-carboxamide] | 6.5 | 101 | – | –
4 | rac-(1R 2R,3S,4R,5S)—N-(4-fluoro-3-(trifluoromethyl)phenyl-5-hydroxy-3-(1-methyl-3-(trifluoromethyl)-1H-pyrazol-4-yl)-7-oxabicyclo[2.2.1]heptane-2-carboxamide [Example 56] | – | – | > 30 | 32
5 | Cc1c(NC(=O)[C@@H]2[C@@H](c3cccc(C(F)(F)F)c3)[C@H]3O[C@@H]2C[C@@H]3O)cccc1C(F)(F)F (racemic) [Example 11, rac-(1R,2R,3S,4R,5S)-5-hydroxy-N-(2-methyl-3-(trifluoromethyl)phenyl)-3-(3-(trifluoromethyl)phenyl)-7-oxabicyclo[2.2.1]heptane-2-carboxamide] | > 30 | 33 | – | –
6 | COc1ccc(NC(=O)[C@@H]2[C@@H](c3cn(C)nc3C(F)(F)F)[C@H]3O[C@@H]2C[C@@H]3O)cc1C(F)(F)F (racemic) [Example 31, rac-(1R,2R,3S,4R,5S)-5-hydroxy-N-(4-methoxy-3-(trifluoromethyl)phenyl)-3-(1-methyl-3-(trifluoromethyl)-1H-pyrazol-4-yl)-7-oxabicyclo[2.2.1]heptane-2-carboxamide] | 3.1 | 102 | – | –
7 | O=C(Nc1cc(Cl)cc(C(F)(F)F)c1)[C@@H]1[C@@H](c2cccc(C(F)(F)F)c2)[C@H]2O[C@@H]1C[C@@H]2O (racemic) [Example 19, rac-(1R,2R,3S,4R,5)-N-(3-chloro-5-(trifluoromethyl)phenyl)-5-hydroxy-3-(3-(trifluoromethyl)phenyl)-7-oxabicyclo[2.2.1]heptane-2-carboxamide] | 11 | 102 | – | –
8 | Cn1nc(C(F)(F)F)cc1[C@H]1[C@H]2O[C@H](C[C@@H]2O)[C@@H]1C(=O)Nc1cc(C(F)(F)F)ccn1 (racemic) [Example 74, rac-(1R,2R,3,4R,5)-5-hydroxy-3-(1-methy-3-(trifluoromethyl)-1H-pyrazol-5-yl)-N-(4-(trifluoromethyl)pyridin-2-yl-7-oxabicyclo[2.2.1]heptane-2-carboxamide] | 11 | 64 | – | –
9 | Cn1nc(C(F)(F)F)cc1[C@H]1[C@H]2O[C@H](C[C@@H]2O)[C@@H]1C(=O)Nc1cc(C(F)(F)F)ccc1F (racemic) [Example 75, rac-(1R,2R,3S,4R,5S)—N-(2-fluoro-S-trifluoromethyl)phenyl)-5-hydroxy-3-(1-methyl-3-(trifluoromethyl)-1H-pyrazol-5-yl)-7-oxabicyclo[2.2.1]heptane-2-carboxamide] | > 30 | 46 | – | –
10 | O=C(Nc1cc(C(F)(F)F)ccc1F)[C@@H]1[C@@H](c2cccc(C(F)(F)F)c2)[C@H]2O[C@@H]1C[C@@H]2O (racemic) [Example 1, rac-(1R,2R,3S,4R,5S)—N-(2-fluoro-5-(trifluoromethyl)phenyl)-5-hydroxy-3-(3-(trifluoromethylphenyl)-7-oxabicyclo[2.2.1]heptane-2-carboxamide] | 29 | 60 | – | –
11 | CCOc1cc(C(F)(F)F)cc(NC(=O)[C@@H]2[C@@H](c3cccc(C(F)(F)F)c3)[C@H]3O[C@@H]2C[C@@H]3O)n1 (racemic) [Example 9, rac-(1R 2R,3S,4R,5S)—N-(6-ethoxy-4-(trifluoromethyl)pyridin-2-yl-5-hydroxy-3-(3-(trifluoromethyl)phenyl)-7-oxabicyclo[2.2.1]heptane-2-carboxamide] | 12 | 108 | – | –
12 | COc1cc(NC(=O)[C@@H]2[C@@H](c3cccc(C(F)(F)F)c3)[C@H]3O[C@@H]2C[C@@H]3O)cc(C(F)(F)F)c1 (racemic) [Example 21, rac-(1R,2R,3S,4R,5S)-5-hydroxy-N-(3-methoxy-5-trifluoromethyl)phenyl)-3-(3-(trifluoromethyl)phenyl)-7-oxabicyclo[2.2.1]heptane-2-carboxamide] | 24 | 104 | – | –
13 | O=C(Nc1cccc(C(F)(F)F)c1)[C@@H]1[C@@H](c2ccnc(C(F)(F)F)c2)[C@H]2O[C@@H]1C[C@@H]2O (racemic) [Example 63, rac-(1R,2R,3S,4R,5S)-5-hydroxy-N-(3-(trifluoromethyl)phenyl)-3-(2-(trifluoromethyl)pyridin-4-yl)-7-oxabicyclo[2.2.1]heptane-2-carboxamide] | 18 | 44 | – | –
14 | O=C(Nc1ccc(C(F)(F)F)nc1)[C@@H]1[C@@H](c2cccc(C(F)(F)F)c2)[C@H]2O[C@@H]1C[C@@H]2O (racemic) [Example 27, rac-(1R,2R,3S,4R,5S)-5-hydroxy-3-(3-(trifluoromethyl)phenyl)-N-(6-(trifluoromethyl)pyridin-3-yl)-7-oxabicyclo[2.2.1]heptane-2-carboxamide] | > 30 | 38 | – | –
15 | COc1cc([C@H]2[C@H]3O[C@H](C[C@@H]3O)[C@@H]2C(=O)Nc2cccc(C(F)(F)F)c2)ccn1 (racemic) [Example 70, rac-(1R,2R,3S,4R,5S)-5-hydroxy-3-(2-methoxypyridin-4-yl)-N-(3-(trifluoromethyl)phenyl)-7-oxabicyclo[2.2.1]heptane-2-carboxamide] | > 30 | 13 | – | –
16 | Cn1cc([C@H]2[C@H]3O[C@H](C[C@@H]3O)[C@@H]2C(=O)Nc2cc(C(F)(F)F)ccn2)c(C(F)(F)F)n1 (single isomer, unassigned) [Example 38b, (1R,2R,3S,4R,5S)-5-hydroxy-3-(1-methyl-3-(trifluoromethyl)-1H-pyrazol-4-yl)-N-(4-(trifluoromethyl)pyridin-2-yl)-7-oxabicyclo[2.2.1]heptane-2-carboxamide or (1S,2S,3R,4S,5R)-5-hydroxy-3-(1-methyl-3-(trifluoromethyl)-1H-pyrazol-4-yl)-N-(4-(trifluoromethyl)pyridin-2-yl)-7-oxabicyclo[2.2.1]heptane-2-carboxamide] | – | – | > 30 | 27
17 | O=C(Nc1cccc(C(F)(F)F)c1)[C@@H]1[C@@H](c2ccnc(F)c2)[C@H]2O[C@@H]1C[C@@H]2O (racemic) [Example 80, rac-(1R 2R,3S,4R,5S)-3-(2-fluoropyridin-4-yl)-5-hydroxy-N-(3-(trifluoromethyl)phenyl)-7-oxabicyclo[2.2.1]heptane-2-carboxamide] | 23 | 34 | – | –
